Tests used:
[1] = test system: Italian ryegrass (Lolium multiflorum); assay: (2) Herbicidal effect test, pot, spray at 2.5 to 3.0 leaf stage; type: in vivo; conditions: 16th day after spraying
Source text: (§1) [formula] • X: growth inhibition rate when treated with α (g/ha) of compound A, • Y: growth inhibition rate when treated with β (g/ha) of compound B, • E: growth inhibition rate expected when treated with α (g/ha) of compound A and β (g/ha) of compound B (expected value).
(§2) Upland soil was put in a 1/1,000,000 hectare pot, and seeds of Italian ryegrass (Lolium multiflorum) were sown. When the Italian ryegrass reached 2.5 to 3.0 leaf stage, a water-based suspension containing tiafenacil as the active ingredient, prepared by a conventional method for preparing a water-based suspension, and an emulsifiable concentrate containing S-metolachlor as the active ingredient (tradename: Dual Gold, manufactured by Syngenta), were diluted with water (in an amount corresponding to 200 liter per hectare) containing 0.5 vol % of an agricultural spreader (tradename: Destiny HC, manufactured by Winfield Solutions, LLC.) and sprayed by a small spray gun (model: W-101-132G, manufactured by ANEST IWATA Corporation). On the 16th day after spraying, the state of growth of the Italian ryegrass was visually observed, and the growth inhibition rate (%) was obtained in accordance with the evaluation standards described in the above (1) herbicidal effect test, and the results are shown in Table 2. Further, the expected value of the growth inhibition rate (%) was calculated in accordance with the Colby's formula described in the above (1) herbicidal effect test, and the results are also shown in Table 2.

[2] = test system: Italian ryegrass (Lolium multiflorum); assay: (6) Herbicidal effect test, pot, spray at 2.5 to 3.0 leaf stage; type: in vivo; conditions: 14th day after spraying
Source text: as §1
as §2, with “and water dispersible granules” for “and an emulsifiable concentrate”, “containing pyroxasulfone” for “containing S-metolachlor”, “(tradename: Sakura,” for “(tradename: Dual Gold,”, “by Bayer Crop Science)” for “by Syngenta),”, “the 14th” for “the 16th”, “Table 6.” for “Table 2.”

CCc1cccc(C)c1N(C(=O)CCl)[C@@H](C)COC [S-metolachlor]
Growth inhibition rate (%) Measured value ([1]; Dose 62.5 g/ha): 0% | Growth inhibition rate (%) Measured value ([1]; Dose 125 g/ha): 0% | Growth inhibition rate (%) Measured value ([1]; Dose 750 g/ha): 7% | Growth inhibition rate (%) Measured value ([1]; Dose 1500 g/ha): 55% | Growth inhibition rate (%) Measured value ([1]; Dose 3000 g/ha): 73%

Cn1nc(C(F)(F)F)c(CS(=O)(=O)C2=NOC(C)(C)C2)c1OC(F)F [pyroxasulfone]
inhibition at 15 g/ha ([2]; Lolium multiflorum, Dose 15 g/ha, read-out: Growth inhibition rate (%) Measured value): 0% | inhibition at 30 g/ha ([2]; Lolium multiflorum, Dose 30 g/ha, read-out: Growth inhibition rate (%) Measured value): 5% | inhibition at 125 g/ha ([2]; Lolium multiflorum, Dose 125 g/ha, read-out: Growth inhibition rate (%) Measured value): 35% | inhibition at 250 g/ha ([2]; Lolium multiflorum, Dose 250 g/ha, read-out: Growth inhibition rate (%) Measured value): 42% | inhibition at 500 g/ha ([2]; Lolium multiflorum, Dose 500 g/ha, read-out: Growth inhibition rate (%) Measured value): 67% | inhibition at 1000 g/ha ([2]; Lolium multiflorum, Dose 1000 g/ha, read-out: Growth inhibition rate (%) Measured value): 72%

COC(=O)CCNC(=O)C(C)Sc1cc(-n2c(=O)cc(C(F)(F)F)n(C)c2=O)c(F)cc1Cl (stereo not shown) [tiafenacil]
Growth inhibition rate (%) Measured value ([1]; Dose 12.5 g/ha): 30% | Growth inhibition rate (%) Measured value ([2]; Dose 12.5 g/ha): 63%
